Laboratory results published in the NIST ThermoML archive (doi:10.1021/je6005778).

Settings: Liquid; for speed of sound: Pulse-echo method

CC(O)CCO (stereo unspecified) [1,3-butanediol]
Settings	mass density [kg/m3]	speed of sound [m/s]
288.15 K, 101.33 kPa	1006.75	–
292.86 K, 45590 kPa	–	1686.5
292.86 K, 75990 kPa	–	1770.1
292.86 K, 91180 kPa	–	1808.7
292.86 K, 101320 kPa	–	1833.6
292.87 K, 15200 kPa	–	1592.1
292.87 K, 30390 kPa	–	1641
292.87 K, 60790 kPa	–	1729.5
292.92 K, 101.33 kPa	–	1537.7
293.15 K, 101.33 kPa	1003.52	–
298.15 K, 101.33 kPa	1000.23	–
298.15 K, 15200 kPa	–	1578.4
298.15 K, 30390 kPa	–	1628
298.15 K, 45590 kPa	–	1673.8
298.15 K, 60790 kPa	–	1717.4
298.15 K, 75990 kPa	–	1758.3
298.15 K, 91180 kPa	–	1797.3
298.15 K, 101320 kPa	–	1822.1
298.2 K, 101.33 kPa	–	1523.3
303.13 K, 15200 kPa	–	1565.3
303.13 K, 30390 kPa	–	1615.9
303.13 K, 45590 kPa	–	1662.2
303.13 K, 60790 kPa	–	1706
303.13 K, 75990 kPa	–	1747.3
303.13 K, 91180 kPa	–	1786.7
303.13 K, 101320 kPa	–	1811.6
303.15 K, 101.33 kPa	996.895	–
303.17 K, 101.33 kPa	–	1509.7
308.11 K, 101320 kPa	–	1801.7
308.12 K, 45590 kPa	–	1650.6
308.12 K, 75990 kPa	–	1736.7
308.13 K, 15200 kPa	–	1552.4
308.13 K, 30390 kPa	–	1603.5
308.13 K, 60790 kPa	–	1694.6
308.13 K, 91180 kPa	–	1776.3
308.15 K, 101.33 kPa	993.524	–
308.16 K, 101.33 kPa	–	1496
313.11 K, 15200 kPa	–	1539.6
313.11 K, 30390 kPa	–	1591.2
313.11 K, 45590 kPa	–	1639.1
313.11 K, 60790 kPa	–	1683.6
313.11 K, 75990 kPa	–	1725.9
313.11 K, 91180 kPa	–	1765.9
313.11 K, 101320 kPa	–	1791.5
313.14 K, 101.33 kPa	–	1482.3
313.15 K, 101.33 kPa	990.116	–
318.16 K, 101.33 kPa	986.665	–
318.29 K, 15200 kPa	–	1526.2
318.29 K, 30390 kPa	–	1578.4
318.29 K, 45590 kPa	–	1627
318.29 K, 60790 kPa	–	1672
318.29 K, 75990 kPa	–	1714.8
318.29 K, 91180 kPa	–	1755.2
318.29 K, 101320 kPa	–	1781.1
318.32 K, 101.33 kPa	–	1467.9
323.15 K, 101.33 kPa	983.181	–
328.16 K, 101.33 kPa	979.654	–
333.16 K, 101.33 kPa	976.087	–
338.15 K, 101.33 kPa	972.476	–
343.15 K, 101.33 kPa	968.825	–
348.16 K, 101.33 kPa	965.14	–
353.15 K, 101.33 kPa	961.411	–
358.15 K, 101.33 kPa	957.637	–
363.15 K, 101.33 kPa	953.825	–

CCC(O)CO (stereo unspecified) [1,2-butanediol]
Settings	mass density [kg/m3]	speed of sound [m/s]
288.15 K, 101.33 kPa	1005.78	–
292.87 K, 45600 kPa	–	1634.3
292.87 K, 60790 kPa	–	1681.5
292.87 K, 75990 kPa	–	1726
292.87 K, 91190 kPa	–	1768
292.87 K, 101320 kPa	–	1794.7
292.88 K, 15200 kPa	–	1528.2
292.88 K, 30400 kPa	–	1583.2
292.93 K, 101.33 kPa	–	1466.5
293.15 K, 101.33 kPa	1002.12	–
298.1 K, 101.33 kPa	–	1451.3
298.15 K, 101.33 kPa	998.408	–
298.15 K, 15200 kPa	–	1513.5
298.15 K, 30400 kPa	–	1569.2
298.15 K, 45600 kPa	–	1621.1
298.15 K, 60790 kPa	–	1668.8
298.15 K, 75990 kPa	–	1713.8
298.15 K, 91190 kPa	–	1755.9
298.15 K, 101320 kPa	–	1783
303.13 K, 15200 kPa	–	1500
303.13 K, 30400 kPa	–	1556.4
303.13 K, 45600 kPa	–	1608.8
303.13 K, 60790 kPa	–	1657.1
303.13 K, 75990 kPa	–	1702.2
303.13 K, 91190 kPa	–	1745
303.13 K, 101320 kPa	–	1772.3
303.15 K, 101.33 kPa	994.659	–
303.18 K, 101.33 kPa	–	1436.5
308.12 K, 60790 kPa	–	1645.5
308.12 K, 91190 kPa	–	1734.2
308.13 K, 15200 kPa	–	1486.6
308.13 K, 30400 kPa	–	1543.5
308.13 K, 45600 kPa	–	1596.5
308.13 K, 75990 kPa	–	1691
308.13 K, 101320 kPa	–	1761.7
308.15 K, 101.33 kPa	990.872	–
308.17 K, 101.33 kPa	–	1421.8
313.15 K, 101.33 kPa	987.048	–
313.3 K, 30400 kPa	–	1530.3
313.3 K, 45600 kPa	–	1583.7
313.3 K, 60790 kPa	–	1633.4
313.3 K, 75990 kPa	–	1679.3
313.3 K, 91190 kPa	–	1723
313.3 K, 101320 kPa	–	1750.4
313.31 K, 15200 kPa	–	1472.8
313.35 K, 101.33 kPa	–	1406.7
318.15 K, 101.33 kPa	983.185	1392.6
323.15 K, 101.33 kPa	979.285	–
328.15 K, 101.33 kPa	975.354	–
333.15 K, 101.33 kPa	971.386	–
338.16 K, 101.33 kPa	967.378	–
343.15 K, 101.33 kPa	963.333	–
348.16 K, 101.33 kPa	959.256	–
353.15 K, 101.33 kPa	955.143	–
358.15 K, 101.33 kPa	950.989	–
363.15 K, 101.33 kPa	946.804	–
